Experimental data: patent publication US20110044991A1, “METHODS AND COMPOSITIONS FOR TREATING LYMPHOMA AND MYELOMA” (IRM LLC, priority 2006, published 2011)

Experiments:
Eμ-Myc lymphoma cells = assay: Luciferase assay and light microscopy of luciferased lymphoma cells on stromal layer; type: cell-based, mouse
Experimental: For Shh pathway inhibition on stroma, 6200 stroma cells were seeded per 96-well. After 24 hours 20,000 luciferased lymphoma cells were seeded on the stroma cells and 2 hours later compound or DMSO was added. Luciferase assay was performed with Bright-glow reagent as described. To generate cells overexpressing Hh pathway members, lymphoma cells were infected with Smo, Smo 535, Smo 562, Gli1 and Fused-pMSCV IRES GFP constructs and then sorted for GFP positive cells.
In order to investigate whether the Hh signalling pathway does indeed contribute to the survival and proliferation of lymphoma cells growing on an intact stromal layer, lymphoma cells were luciferased using a retrovirus expressing a puromycin/Luc fusion cassette. 2×10E4 lymphoma cells constitutively expressing luciferase were added to each 96-well containing a stromal layer (not expressing luciferase) isolated from Cdkn2a^−/− mice. A total of 34 individual Eμ-Myc-lymphomas and 8 Cdkn2a-lymphomas were tested. A luciferase assay was performed as a readout for cell viability and proliferation and results were also documented by light microscopy.

[1] = tested on: lymphoma cells (mixed, B-cell lymphoma, plasmacytoma, plasmoblastoma); assay: Cytokine stimulation of lymphoma cells off stroma, Alamar Blue assay; type: cell-based, mouse; conditions: 2 days after stroma removal; cytokines 0-50 ng/ml; IL-6: plasmacytomas and mixed, IL-7: B-cell and mixed lymphomas, not plasmoblastomas
Experimental: Luminescence was measured after 0 h, 24 h and 48 h after seeding of 2×10E4 luciferased lymphoma cells on the stroma cells; and F: RT-PCR analysis of transcripts from Hh pathway members and targets in spleen lymphocytes and different lymphoma cell lines.
Cell culture experiments: Lymphoma cells were infected with a retrovirus containing a pMSCV IRES puro-luc sequence and selected for 7 days with puromycin on puromycin-resistant Cdkn2a−/− stroma. […] Both were dissolved as x 1,000 stocks in DMSO. SCF was obtained from RDI, and all other cytokines were obtained from R&D systems. 5E1 anti-ShhN monoclonal antibody was obtained from the developmental hybridoma bank and was used at a concentration of 10 μg/ml. For cytokine stimulation and Shh inhibition in supernatant lymphoma cells were seeded into 96-well plates at a density of 20,000 cells per well and mitochondrial activity of viable cells was measured with an Alamar Blue Assay as described.

IC50 (Eμ-Myc lymphoma cells; most responsive lymphomas, 48 h on stromal layer, read-out: IC50 (concentration needed for 50% of maximal inhibition)) | Molecule | luciferase activity (viable lymphoma cells) (Eμ-Myc lymphoma cells; Myc-Ly6, 48 hours, 0, 0.5, 1, 5 and 10 μM) | number of viable lymphoma cells / survival after cytokine stimulation [1]
1000 to 3000 nM | Cc1nn(-c2ccccc2)c(C)c1/C=N/N1CCN(Cc2ccccc2)CC1 [SANT-1] | reduced in a dose dependant manner | –
– | GM-CSF: cytokine / growth factor | – | no effect on lymphocyte growth
– | IL-6: cytokine / growth factor | – | enhance survival
– | SCF: cytokine / growth factor, obtained from RDI | – | no effect on lymphocyte growth
– | IL-7: cytokine / growth factor (protein, UniProt P13232 26-177, looked up) Interleukin-7: DCDIEGKDGKQYESVLMVSIDQLLDSMKEIGSNCLNNEFNFFKRHICDANKEGMFLFRAARKLRQFLKMNSTGDFDLHLLKVSEGTTILLNCTGQVKGRKPAALGEAQPTKSLEENKSLKEQKKLNDLCFLKRLLQEIKTCWNKILMGTKEH | – | enhance survival
– | Wnt3a: growth factor (protein, UniProt P56704 19-352, looked up) Protein Wnt-3a: SYPIWWSLAVGPQYSSLGSQPILCASIPGLVPKQLRFCRNYVEIMPSVAEGIKIGIQECQHQFRGRRWNCTTVHDSLAIFGPVLDKATRESAFVHAIASAGVAFAVTRSCAEGTAAICGCSSRHQGSPGKGWKWGGCSEDIEFGGMVSREFADARENRPDARSAMNRHNNEAGRQAIASHMHLKCKCHGLSGSCEVKTCWWSQPDFRAIGDFLKDKYDSASEMVVEKHRESRGWVETLRPRYTYFKVPTERDLVYYEASPNFCEPNPETGSFGTRDRTCNVSSHGIDGCDLLCCGRGHNARAERRREKCRCVFHWCCYVSCQECTRVYDVHTCK | – | no effect on lymphocyte growth
– | IL-11: cytokine / growth factor (protein, UniProt P20809 22-199, looked up) Interleukin-11: PGPPPGPPRVSPDPRAELDSTVLLTRSLLADTRQLAAQLRDKFPADGDHNLDSLPTLAMSAGALGALQLPGVLTRLRADLLSYLRHVQWLRRAGGSSLKTLEPELGTLQARLDRLLRRLQLLMSRLALPQPPPDPPAPPLAPPSSAWGGIRAAHAILGGLHLTLDWAVRGLLLLKTRL | – | no effect on lymphocyte growth
